# ChEMBL document CHEMBL5543092, “Design, synthesis, and biological characterization of proteolysis targeting chimera (PROTACs) for the ataxia telangiectasia and RAD3-related (ATR) kinase” (Eur J Med Chem, 2024)
# Active and inactive are the calls of the source. The rule behind the calls is not given here.
# How the values were obtained:
# [1] = Chemical stability of the compound in at pH 7.4 measured at 6 hrs by HPLC based non-enzymatic stability assay; format: physicochemical; conditions: buffer, read-out: Stability
# [2] = Chemical stability of the compound in at pH 7.4 measured at 12 hrs by HPLC based non-enzymatic stability assay; format: physicochemical; conditions: buffer, read-out: Stability
# [3] = Chemical stability of the compound in at pH 7.4 measured at 48 hrs by HPLC based non-enzymatic stability assay; format: physicochemical; conditions: buffer, read-out: Stability
# [4] = Chemical stability of the compound in at pH 7.4 measured at 72 hrs by HPLC based non-enzymatic stability assay; format: physicochemical; conditions: buffer, read-out: Stability
# [5] = Chemical stability of the compound in at pH 7.4 measured at 24 hrs by HPLC based non-enzymatic stability assay; format: physicochemical; conditions: buffer, read-out: Stability
# HEK293 = test: Cytotoxicity against human HEK293 cells assessed as cell viability at 50 uM incubated for 24 hrs by Alamar Blue reagent based assay relative to control; format: functional; conditions: read-out: Activity
# [6] = molecular target: Protein cereblon/Serine/threonine-protein kinase ATR (Homo sapiens) (UniProt Q13535+Q96SW2); test: PROTAC activity at ATR/CRBN in patient derived human MIA PaCa-2 cells assessed as reduction in protein level at 2 uM measured after 24 hrs by immunoblot analysis relative to untreated control; format: cell-based; design: scale not given: the % may be the effect or the level left
# Protein cereblon/Serine/threonine-protein kinase ATR (Homo sapiens), sequence (Q13535 whole entry, looked up): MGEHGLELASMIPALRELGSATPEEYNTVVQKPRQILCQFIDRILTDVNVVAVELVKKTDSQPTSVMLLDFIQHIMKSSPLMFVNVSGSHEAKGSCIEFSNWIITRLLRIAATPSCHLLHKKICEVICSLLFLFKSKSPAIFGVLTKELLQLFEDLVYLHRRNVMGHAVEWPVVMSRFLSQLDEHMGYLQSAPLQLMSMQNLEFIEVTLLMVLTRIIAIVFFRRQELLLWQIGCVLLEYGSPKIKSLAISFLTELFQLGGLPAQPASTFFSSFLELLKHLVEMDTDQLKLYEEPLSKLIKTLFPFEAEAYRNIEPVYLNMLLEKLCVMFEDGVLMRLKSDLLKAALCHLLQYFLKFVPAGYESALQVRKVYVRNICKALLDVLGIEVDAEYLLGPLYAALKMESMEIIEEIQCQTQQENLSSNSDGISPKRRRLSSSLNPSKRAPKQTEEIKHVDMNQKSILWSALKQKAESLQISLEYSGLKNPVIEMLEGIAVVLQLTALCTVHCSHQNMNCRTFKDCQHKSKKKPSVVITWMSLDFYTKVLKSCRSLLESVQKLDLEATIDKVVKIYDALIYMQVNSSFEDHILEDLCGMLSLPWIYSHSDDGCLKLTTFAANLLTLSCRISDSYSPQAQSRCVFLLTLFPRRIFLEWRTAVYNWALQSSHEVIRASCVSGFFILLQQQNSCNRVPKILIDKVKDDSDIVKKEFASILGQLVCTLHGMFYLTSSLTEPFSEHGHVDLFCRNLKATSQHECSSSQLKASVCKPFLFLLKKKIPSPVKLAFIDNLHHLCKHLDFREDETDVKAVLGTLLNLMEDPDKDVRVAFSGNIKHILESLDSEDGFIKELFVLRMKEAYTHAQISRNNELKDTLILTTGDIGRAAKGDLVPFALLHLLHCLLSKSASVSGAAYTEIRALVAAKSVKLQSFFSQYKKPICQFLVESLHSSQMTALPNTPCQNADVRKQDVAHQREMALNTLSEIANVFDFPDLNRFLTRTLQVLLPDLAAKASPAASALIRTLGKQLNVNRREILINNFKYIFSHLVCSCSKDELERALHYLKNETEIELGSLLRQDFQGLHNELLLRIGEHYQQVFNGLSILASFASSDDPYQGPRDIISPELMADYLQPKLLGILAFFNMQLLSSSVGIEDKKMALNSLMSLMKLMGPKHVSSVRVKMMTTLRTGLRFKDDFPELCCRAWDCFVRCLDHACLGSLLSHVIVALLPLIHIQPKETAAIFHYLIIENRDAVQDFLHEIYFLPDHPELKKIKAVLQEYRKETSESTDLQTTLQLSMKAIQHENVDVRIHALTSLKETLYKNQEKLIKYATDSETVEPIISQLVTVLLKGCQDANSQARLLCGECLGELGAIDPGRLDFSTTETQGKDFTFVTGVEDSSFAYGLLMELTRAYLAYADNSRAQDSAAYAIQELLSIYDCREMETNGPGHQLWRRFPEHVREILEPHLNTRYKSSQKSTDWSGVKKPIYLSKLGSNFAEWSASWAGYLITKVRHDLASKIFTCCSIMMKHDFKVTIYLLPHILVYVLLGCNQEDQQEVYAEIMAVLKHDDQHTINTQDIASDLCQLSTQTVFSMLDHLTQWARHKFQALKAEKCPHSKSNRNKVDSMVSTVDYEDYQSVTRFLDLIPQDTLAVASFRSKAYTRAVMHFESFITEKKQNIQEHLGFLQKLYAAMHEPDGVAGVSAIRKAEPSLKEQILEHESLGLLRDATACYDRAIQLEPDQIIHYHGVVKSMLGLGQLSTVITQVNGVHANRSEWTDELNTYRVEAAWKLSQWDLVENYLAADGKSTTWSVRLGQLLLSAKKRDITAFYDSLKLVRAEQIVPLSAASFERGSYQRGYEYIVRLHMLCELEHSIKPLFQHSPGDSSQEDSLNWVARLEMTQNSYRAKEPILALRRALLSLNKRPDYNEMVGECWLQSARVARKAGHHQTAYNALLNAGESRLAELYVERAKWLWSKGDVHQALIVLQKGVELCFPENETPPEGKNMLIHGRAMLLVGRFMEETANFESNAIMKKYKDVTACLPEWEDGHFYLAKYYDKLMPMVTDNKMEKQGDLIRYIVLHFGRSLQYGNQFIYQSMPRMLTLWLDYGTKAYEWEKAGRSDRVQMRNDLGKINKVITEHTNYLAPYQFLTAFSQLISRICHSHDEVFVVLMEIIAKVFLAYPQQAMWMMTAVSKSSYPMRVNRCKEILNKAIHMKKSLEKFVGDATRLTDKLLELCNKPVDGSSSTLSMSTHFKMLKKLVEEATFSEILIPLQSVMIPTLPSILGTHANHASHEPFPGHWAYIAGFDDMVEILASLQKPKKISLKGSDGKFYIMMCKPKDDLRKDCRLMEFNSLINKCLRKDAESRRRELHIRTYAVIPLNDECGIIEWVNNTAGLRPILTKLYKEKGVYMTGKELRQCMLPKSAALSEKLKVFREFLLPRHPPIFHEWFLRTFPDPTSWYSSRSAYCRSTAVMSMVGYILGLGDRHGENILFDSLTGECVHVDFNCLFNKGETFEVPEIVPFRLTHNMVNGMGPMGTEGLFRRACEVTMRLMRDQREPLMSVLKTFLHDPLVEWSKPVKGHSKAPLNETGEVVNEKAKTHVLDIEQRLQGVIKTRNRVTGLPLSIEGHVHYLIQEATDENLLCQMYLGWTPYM
# Protein cereblon/Serine/threonine-protein kinase ATR (Homo sapiens), sequence (Q96SW2 whole entry, looked up): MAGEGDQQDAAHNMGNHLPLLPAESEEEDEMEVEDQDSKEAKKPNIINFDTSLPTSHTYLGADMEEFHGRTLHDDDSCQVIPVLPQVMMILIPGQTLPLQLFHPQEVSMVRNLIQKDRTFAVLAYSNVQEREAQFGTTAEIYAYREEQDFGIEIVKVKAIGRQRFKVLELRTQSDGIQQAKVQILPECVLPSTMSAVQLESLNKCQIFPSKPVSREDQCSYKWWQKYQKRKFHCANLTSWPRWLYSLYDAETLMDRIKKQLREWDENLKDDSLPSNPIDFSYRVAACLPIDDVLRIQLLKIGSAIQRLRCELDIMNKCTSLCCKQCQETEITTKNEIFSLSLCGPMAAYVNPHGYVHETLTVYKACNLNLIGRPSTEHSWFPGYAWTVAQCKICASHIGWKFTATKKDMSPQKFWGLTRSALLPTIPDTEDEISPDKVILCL
remaining at 6 h [1] [%],remaining at 12 h [2] [%],remaining at 48 h [3] [%],remaining at 72 h [4] [%],remaining at 24 h [5] [%],Activity [6],Structure (SMILES),viability at 50 µM (HEK293) [%]
100,100,77,47,98,,Nc1ncc(-c2ccc(S(=O)(=O)NCCCCCCCC(=O)NCC#Cc3cccc4c3CN(C3CCC(=O)NC3=O)C4=O)cc2)nc1C(=O)Nc1ccccc1 (stereo unspecified),94.2
101,101,100,100,102,40%,CNCc1ccc(-c2nnc(-c3nc(-c4ccc(S(=O)(=O)NCCCCC(=O)NCCCC#Cc5cccc6c5CN(C5CCC(=O)NC5=O)C6=O)cc4)cnc3N)o2)cc1 (stereo unspecified),107
101,101,100,101,101,> 20%,CNCc1ccc(-c2nnc(-c3nc(-c4ccc(S(=O)(=O)NCCCCCCC(=O)NCC#Cc5cccc6c5CN(C5CCC(=O)NC5=O)C6=O)cc4)cnc3N)o2)cc1 (stereo unspecified),89.5
104,103,103,102,103,inactive,CNCc1ccc(-c2nnc(-c3nc(-c4ccc(S(=O)(=O)NCCCCCC(=O)NCCCC#Cc5cccc6c5CN(C5CCC(=O)NC5=O)C6=O)cc4)cnc3N)o2)cc1 (stereo unspecified),101
101,101,100,100,101,> 20%,CNCc1ccc(-c2nnc(-c3nc(-c4ccc(S(=O)(=O)NCCCCCC(=O)NCC#Cc5cccc6c5CN(C5CCC(=O)NC5=O)C6=O)cc4)cnc3N)o2)cc1 (stereo unspecified),102
104,105,103,107,105,inactive,Nc1ncc(-c2ccc(S(=O)(=O)NCCCCC(=O)NCC#Cc3cccc4c3CN(C3CCC(=O)NC3=O)C4=O)cc2)nc1-c1nnc(-c2ccccc2)o1 (stereo unspecified),95.5
97,92,78,70,88,,Nc1ncc(-c2ccc(S(=O)(=O)NCCCCCCC(=O)N3CCN(c4ccc5c(c4)C(=O)N(C4CCC(=O)NC4=O)C5=O)CC3)cc2)nc1C(=O)Nc1ccccc1 (stereo unspecified),93.2
100,100,98,97,99,inactive,CN1C(=O)CCC(N2Cc3c(C#CCCCNC(=O)CCCCCNS(=O)(=O)c4ccc(-c5cnc(N)c(C(=O)Nc6ccccc6)n5)cc4)cccc3C2=O)C1=O (stereo unspecified),83.5
101,103,105,109,104,Active,Nc1ncc(-c2ccc(S(=O)(=O)NCCCCCC(=O)NCC#Cc3cccc4c3CN(C3CCC(=O)NC3=O)C4=O)cc2)nc1C(=O)Nc1ccccc1 (stereo unspecified),86.4
98,105,94,84,108,inactive,Nc1ncc(-c2ccc(S(=O)(=O)NCCCCCCCC(=O)N3CCN(c4ccc5c(c4)C(=O)N(C4CCC(=O)NC4=O)C5=O)CC3)cc2)nc1C(=O)Nc1ccccc1 (stereo unspecified),90.5
102,102,103,103,102,,Nc1ncc(-c2ccc(S(=O)(=O)NCCCCC(=O)NCCCC#Cc3cccc4c3CN(C3CCC(=O)NC3=O)C4=O)cc2)nc1C(=O)Nc1ccccc1 (stereo unspecified),104

# The remaining lines, values behind:
Structure (SMILES),remaining at 6 h [1] [%],remaining at 12 h [2] [%],remaining at 48 h [3] [%],remaining at 72 h [4] [%],remaining at 24 h [5] [%],Activity [6],viability at 50 µM (HEK293) [%]
CNCc1ccc(-c2nnc(-c3nc(-c4ccc(S(=O)(=O)NCCCCC(=O)N5CCN(c6ccc7c(c6)C(=O)N(C6CCC(=O)NC6=O)C7=O)CC5)cc4)cnc3N)o2)cc1 (stereo unspecified),97,99,83,74,91,,104
Nc1ncc(-c2ccc(S(=O)(=O)NCCCCC(=O)N3CCN(c4ccc5c(c4)C(=O)N(C4CCC(=O)NC4=O)C5=O)CC3)cc2)nc1C(=O)Nc1ccccc1 (stereo unspecified),97,94,82,74,90,inactive,102
Nc1ncc(-c2ccc(S(=O)(=O)NCCOCCOCCC(=O)N3CCN(c4ccc5c(c4)C(=O)N(C4CCC(=O)NC4=O)C5=O)CC3)cc2)nc1C(=O)Nc1ccccc1 (stereo unspecified),100,95,21,6,80,inactive,79.9
CNCc1ccc(-c2nnc(-c3nc(-c4ccc(S(=O)(=O)NCCCCCC(=O)N[C@H](C(=O)N5C[C@H](O)C[C@H]5C(=O)NCc5ccc(-c6scnc6C)cc5)C(C)(C)C)cc4)cnc3N)o2)cc1,101,100,99,99,101,,81.8
CNCc1ccc(-c2nnc(-c3nc(-c4ccc(S(=O)(=O)NCCCCCCC(=O)NCCCC#Cc5cccc6c5CN(C5CCC(=O)NC5=O)C6=O)cc4)cnc3N)o2)cc1 (stereo unspecified),101,101,95,93,101,> 20%,91.8
Nc1ncc(-c2ccc(S(=O)(=O)NCCCCC(=O)N3CCN(c4ccc5c(c4)C(=O)N(C4CCC(=O)NC4=O)C5=O)CC3)cc2)nc1-c1nnc(-c2ccccc2)o1 (stereo unspecified),99,95,85,77,91,,97.6
Cc1ncsc1-c1ccc(CNC(=O)[C@@H]2C[C@@H](O)CN2C(=O)[C@@H](NC(=O)CCCCCNS(=O)(=O)c2ccc(-c3cnc(N)c(-c4nnc(-c5ccccc5)o4)n3)cc2)C(C)(C)C)cc1,100,100,103,104,102,,79.8
Cc1ncsc1-c1ccc(CNC(=O)[C@@H]2C[C@@H](O)CN2C(=O)[C@@H](NC(=O)CCCCNS(=O)(=O)c2ccc(-c3cnc(N)c(-c4nnc(-c5ccccc5)o4)n3)cc2)C(C)(C)C)cc1,100,100,103,104,102,,91.1
CNCc1ccc(-c2nnc(-c3nc(-c4ccc(S(=O)(=O)NCCCCCCC(=O)N5CCN(c6ccc7c(c6)C(=O)N(C6CCC(=O)NC6=O)C7=O)CC5)cc4)cnc3N)o2)cc1 (stereo unspecified),97,95,79,72,91,,95.7
